Each compound was assayed against human recombinant GABAA α5β3γ2 receptor (Homo sapiens (Human), UniProt P18507+P31644) (assay: Radioligand ([3H]Ro151788) receptor binding assay). Settings: membranes of HEK cells expressing human recombinant GABAA α5β3γ2; 0.5 nM [3H]Ro151788; 60 minutes at 4° C.; read-out: hGABAA α5 Ki.
Procedure: The GABAA α5β3γ2 protein used for the receptor binding assay was derived from membranes produced from HEK cells (Millipore CYL3073) expressing the human recombinant GABAA α5β3γ2 receptor. Cells were stored and cultured in-house according to the instructions provided by the vendor (Millipore). Cell pellet was homogenized in 10 times modified Krebs Henseleit buffer (membrane preparation buffer): 20 mM Tris, 120 mM NaCl, 100 mM KCl, 25 mM CaCl2 and 25 mM MgCl2 pH=7.4 at 4° C. using Ultra Turrax (Janke&Kunkel) maximal speed for 15 seconds. The homogenate was centrifuged at 40,000 g for 30 minutes at 4° C. Supernatant was discarded and the resulting pellet was washed in membrane preparation buffer. Pellet was resuspended in membrane preparation buffer and aliquots of 1.4 mL ampules were stored at −70° C. until use.
Receptor binding assays were performed in 96-well format in deep-well plates. For each 96-well plate one ampule of membrane homogenate was thawed and diluted in binding buffer (50 mM Tris pH=7.4, 100 mM KCl) and 200 μL was dispensed into each well. Radioligand [^3H]Ro151788 (Perkin Elmer: NET757250UC) was prepared in binding buffer and added to each well in 50 μL volume to give final concentration of 0.5 nM. Test compounds in suitable concentration(s) were added in additional 50 μL. The final assay volume was 300 μL. Incubation was carried out for 60 minutes at 4° C. For non-specific binding 10 μM unlabeled diazepam was used. After incubation samples were filtered over UniFilter® GF/BT using Filtermate Harvester (Perkin Elmer) and washed with 5×1 mL binding buffer. The plate was dried at 40° C. for an hour and 40 μL Microscint (Perkin Elmer) scintillation cocktail was added to each well. The plate was read in Microbeta (Perkin Elmer).
The specific radioligand binding (SB) was defined as the difference between total binding (Tot) and the non-specific binding (NSB). Results are expressed as a percent inhibition of specific binding obtained in the presence of compound of interest.
For IC50 and Ki determination a minimum of six drug concentrations in triplicate were used. IC50 values (i.e. concentration of compound giving 50% inhibition of specific binding) were calculated from concentration-displacement curves by sigmoidal fitting using Origin 7.5 software. Ki values (i.e. inhibition constants) were calculated using the Cheng-Prusoff equation Ki=IC50/[1+(L/KD)], where [L] is the radioligand concentration and KD the affinity of the labelled ligand for receptor. KD was determined from the Saturation analyses.

Sequence of human recombinant GABAA α5β3γ2 receptor (P31644 32-462): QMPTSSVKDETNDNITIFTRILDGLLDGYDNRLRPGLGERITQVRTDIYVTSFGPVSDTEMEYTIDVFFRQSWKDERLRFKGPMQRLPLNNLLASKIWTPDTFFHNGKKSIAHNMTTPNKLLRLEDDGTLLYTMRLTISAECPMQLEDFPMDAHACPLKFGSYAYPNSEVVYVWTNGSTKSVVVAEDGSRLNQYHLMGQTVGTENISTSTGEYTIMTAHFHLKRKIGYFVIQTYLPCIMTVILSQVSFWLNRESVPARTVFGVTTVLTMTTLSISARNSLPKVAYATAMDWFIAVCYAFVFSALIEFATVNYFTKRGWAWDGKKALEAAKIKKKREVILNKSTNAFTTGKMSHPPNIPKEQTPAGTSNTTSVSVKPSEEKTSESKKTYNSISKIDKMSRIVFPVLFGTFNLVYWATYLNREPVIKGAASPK
Sequence of human recombinant GABAA α5β3γ2 receptor (P28472 26-473 partner): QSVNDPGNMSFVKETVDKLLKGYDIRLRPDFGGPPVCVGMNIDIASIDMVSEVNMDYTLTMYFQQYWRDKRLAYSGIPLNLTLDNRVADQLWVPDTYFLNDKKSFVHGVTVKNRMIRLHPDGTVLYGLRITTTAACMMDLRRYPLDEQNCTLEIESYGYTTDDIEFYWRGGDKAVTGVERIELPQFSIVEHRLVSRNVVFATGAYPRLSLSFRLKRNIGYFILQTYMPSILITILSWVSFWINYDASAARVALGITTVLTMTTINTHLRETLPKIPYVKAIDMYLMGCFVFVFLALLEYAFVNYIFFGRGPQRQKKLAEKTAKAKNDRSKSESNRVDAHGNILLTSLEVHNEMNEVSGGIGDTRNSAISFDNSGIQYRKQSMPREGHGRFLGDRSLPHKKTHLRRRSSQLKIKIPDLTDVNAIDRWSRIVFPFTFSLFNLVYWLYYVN
Sequence of human recombinant GABAA α5β3γ2 receptor (P18507 40-475): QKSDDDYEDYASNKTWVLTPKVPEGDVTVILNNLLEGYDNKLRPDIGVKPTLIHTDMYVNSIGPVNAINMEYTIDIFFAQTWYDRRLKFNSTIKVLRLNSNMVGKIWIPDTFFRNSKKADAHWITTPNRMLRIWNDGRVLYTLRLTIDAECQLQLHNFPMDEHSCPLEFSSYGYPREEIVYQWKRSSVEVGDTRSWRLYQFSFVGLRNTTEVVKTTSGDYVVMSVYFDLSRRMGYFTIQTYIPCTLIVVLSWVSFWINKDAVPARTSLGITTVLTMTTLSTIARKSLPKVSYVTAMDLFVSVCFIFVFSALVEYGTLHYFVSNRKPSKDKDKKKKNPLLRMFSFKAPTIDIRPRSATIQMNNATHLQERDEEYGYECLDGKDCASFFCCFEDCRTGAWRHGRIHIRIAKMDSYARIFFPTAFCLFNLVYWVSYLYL

Structure (SMILES)	Ki
CC(=O)N1CCc2cc(OCc3c(-c4ccc(C(F)(F)F)nc4)noc3C)nnc2C1 [Example 34, 1-[3-({5-methyl-3-[6-(trifluoromethyl)pyridin-3-yl]-1,2-oxazol-4-yl}methoxy)-5H,6H,7H,8H-pyrido[3,4-c]pyridazin-7-yl]ethan-1-one]	8.1 nM
Cc1ccc(-n2nnc(C)c2COc2cc3c(cn2)CN(C(=O)CF)CC3)cn1 [Example 38, 2-fluoro-1-(6-{[4-methyl-1-(6-methylpyridin-3-yl)-1H-1,2,3-triazol-5-yl]methoxy}-1,2,3,4-tetrahydro-2,7-naphthyridin-2-yl)ethan-1-one]	6.6 nM
Cc1nnn(-c2ccc(C(F)(F)F)nc2)c1COc1cc2c(cn1)CN(C(=O)CF)CC2 [Example 49, 2-fluoro-1-[6-({4-methyl-1-[6-(trifluoromethyl)pyridin-3-yl]-1H-1,2,3-triazol-5-yl}methoxy)-1,2,3,4-tetrahydro-2,7-naphthyridin-2-yl]ethan-1-one]	15 nM
Cc1nnn(-c2ccc(C(F)F)nc2)c1COc1cc2c(cn1)CN(C(=O)CF)CC2 [Example 57, 2-fluoro-1-[6-({4-methyl-1-[6-(difluoromethyl)pyridin-3-yl]-1H-1,2,3-triazol-5-yl}methoxy)-1,2,3,4-tetrahydro-2,7-naphthyridin-2-yl]ethan-1-one]	0.9 nM
CC(=O)N1CCc2cc(OCc3c(-c4ccc(C)nc4)nnn3C)ncc2C1 [Example 60, 1-(6-{[1-methyl-4-(6-methylpyridin-3-yl)-1H-1,2,3-triazol-5-yl]methoxy}-1,2,3,4-tetrahydro-2,7-naphthyridin-2-yl)ethan-1-one]	22 nM
CCC(=O)N1CCc2cc(OCc3c(-c4ccc(C)nc4)nnn3C)ncc2C1 [Example 62, 1-(6-{[1-methyl-4-(6-methylpyridin-3-yl)-1H-1,2,3-triazol-5-yl]methoxy}-1,2,3,4-tetrahydro-2,7-naphthyridin-2-yl)propan-1-one]	33 nM
Cc1ccc(-c2nnn(C)c2COc2cc3c(cn2)CN(C(=O)C(C)C)CC3)cn1 [Example 63, 2-methyl-1-(6-{[1-methyl-4-(6-methylpyridin-3-yl)-1H-1,2,3-triazol-5-yl]methoxy}-1,2,3,4-tetrahydro-2,7-naphthyridin-2-yl)propan-1-one]	43 nM
Cc1ccc(-c2nnn(C)c2COc2cc3c(cn2)CN(C(=O)C2CC2)CC3)cn1 [Example 65, 2-cyclopropanecarbonyl-6-{[1-methyl-4-(6-methylpyridin-3-yl)-1H-1,2,3-triazol-5-yl]methoxy}-1,2,3,4-tetrahydro-2,7-naphthyridine]	52 nM
Cc1ccc(-c2nnn(C)c2COc2cc3c(cn2)CN(C(=O)CF)CC3)cn1 [Example 68, 2-fluoro-1-(6-{[1-methyl-4-(6-methylpyridin-3-yl)-1H-1,2,3-triazol-5-yl]methoxy}-1,2,3,4-tetrahydro-2,7-naphthyridin-2-yl)ethan-1-one]	9.1 nM

Now from value to compound:

Ki	Structure (SMILES)
7.9 nM	CC(=O)N1CCc2cc(OCc3c(C)nnn3-c3ccc(C)nc3)ncc2C1 [Example 37, 1-(6-{[4-methyl-1-(6-methylpyridin-3-yl)-1H-1,2,3-triazol-5-yl]methoxy}-1,2,3,4-tetrahydro-2,7-naphthyridin-2-yl)ethan-1-one]
30 nM	Cc1ccc(-n2nnc(C)c2COc2cc3c(cn2)CN(C(=O)C(C)C)CC3)cn1 [Example 39, 2-methyl-1-(6-{[4-methyl-1-(6-methylpyridin-3-yl)-1H-1,2,3-triazol-5-yl]methoxy}-1,2,3,4-tetrahydro-2,7-naphthyridin-2-yl)propan-1-one]
48 nM	Cc1ccc(-n2nnc(C)c2COc2cc3c(cn2)CN(C(=O)CC(C)C)CC3)cn1 [Example 41, 3-methyl-1-(6-{[4-methyl-1-(6-methylpyridin-3-yl)-1H-1,2,3-triazol-5-yl]methoxy}-1,2,3,4-tetrahydro-2,7-naphthyridin-2-yl)butan-1-one]
20 nM	CCC(=O)N1CCc2cc(OCc3c(C)nnn3-c3ccc(C)nc3)ncc2C1 [Example 43, 1-(6-{[4-methyl-1-(6-methylpyridin-3-yl)-1H-1,2,3-triazol-5-yl]methoxy}-1,2,3,4-tetrahydro-2,7-naphthyridin-2-yl)propan-1-one]
22 nM	Cc1ccc(-n2nnc(C)c2COc2cc3c(cn2)CN(C(=O)C2CC2)CC3)cn1 [Example 44, 2-cyclopropanecarbonyl-6-{[4-methyl-1-(6-methylpyridin-3-yl)-1H-1,2,3-triazol-5-yl]methoxy}-1,2,3,4-tetrahydro-2,7-naphthyridine]
25 nM	CC(=O)N1CCc2cc(OCc3c(C)nnn3-c3ccc(C(F)(F)F)nc3)ncc2C1 [Example 47, 1-[6-({4-methyl-1-[6-(trifluoromethyl)pyridin-3-yl]-1H-1,2,3-triazol-5-yl}methoxy)-1,2,3,4-tetrahydro-2,7-naphthyridin-2-yl]ethan-1-one]
33 nM	CCC(=O)N1CCc2cc(OCc3c(C)nnn3-c3ccc(C(F)(F)F)nc3)ncc2C1 [Example 48, 1-[6-({4-methyl-1-[6-(trifluoromethyl)pyridin-3-yl]-1H-1,2,3-triazol-5-yl}methoxy)-1,2,3,4-tetrahydro-2,7-naphthyridin-2-yl]propan-1-one]
44 nM	Cc1nnn(-c2ccc(C(F)(F)F)nc2)c1COc1cc2c(cn1)CN(C(=O)C(C)C)CC2 [Example 50, 2-methyl-1-[6-({4-methyl-1-[6-(trifluoromethyl)pyridin-3-yl]-1H-1,2,3-triazol-5-yl}methoxy)-1,2,3,4-tetrahydro-2,7-naphthyridin-2-yl]propan-1-one]
31 nM	Cc1nnn(-c2ccc(C(F)(F)F)nc2)c1COc1cc2c(cn1)CN(C(=O)C1CC1)CC2 [Example 51, 2-cyclopropanecarbonyl-6-({4-methyl-1-[6-(trifluoromethyl)pyridin-3-yl]-1H-1,2,3-triazol-5-yl}methoxy)-1,2,3,4-tetrahydro-2,7-naphthyridine]
99.1 nM	CC(=O)N1CCc2cc(OCc3c(C)nnn3-c3ccc(C(F)(F)F)nc3)nnc2C1 [Example 53, 1-[3-({4-methyl-1-[6-(trifluoromethyl)pyridin-3-yl]-1H-1,2,3-triazol-5-yl}methoxy)-5,8-dihydropyrido[3,4-c]pyridazin-7(6H)-yl]ethanone]
1.1 nM	CC(=O)N1CCc2cc(OCc3c(C)nnn3-c3ccc(C(F)F)nc3)ncc2C1 [Example 55, 1-[6-({1-[6-(difluoromethyl)pyridin-3-yl]-4-methyl-1H-1,2,3-triazol-5-yl}methoxy)-3,4 dihydro-2,7-naphthyridin-2(1H)-yl]ethanone]
1.6 nM	CCC(=O)N1CCc2cc(OCc3c(C)nnn3-c3ccc(C(F)F)nc3)ncc2C1 [Example 56, 1-[6-({1-[6-(difluoromethyl)pyridin-3-yl]-4-methyl-1H-1,2,3-triazol-5-yl}methoxy)-3,4 dihydro-2,7-naphthyridin-2(1H)-yl]propan-1-one]

— US20240067637A1, “NAPHTHYRIDINE AND PYRIDO[3,4-c]PYRIDAZINE DERIVATIVES AS GABAA ALPHA 5 RECEPTOR MODULATORS” (Richter Gedeon Nyrt., priority 2020, published 2024)
